Laboratory results from patent US6121285A, “Substituted aminocycloalkylpyrrolidine derivatives and cis-substituted aminocycloalkylpyrrolidine derivatives” (Daiichi Pharmaceutical Co., Ltd., priority 1995, dated 2000).
≈ marks a conversion by molar mass, not a printed value. Like-named read-outs stand apart in the source and are kept apart here.

How the values were obtained:
[1] = system: Slc:ddy five week male mice; test: Acute toxicity, intravenous administration to mice; type: in vivo; details: for acute toxicity result in words: same test as cis/trans (cis: 0/5 deaths); for Number of death: hydrochloride in distilled water
Method: A solution of 5-amino-7-[4-(R)-(1-aminocyclopropyl)-3-(S)-fluoro-1-pyrrolidinyl]-6-fluoro-1-[2-(S)-fluoro-1-(R)-cyclopropyl]-1,4-dihydro-8-methyl-4-oxoquinoline-3-carboxylic acid (abbreviated as cis) hydrochloride of Example 15 or 5-amino-7-[4-(R)-(1-aminocyclopropyl)-3-(R)-fluoro-1-pyrrolidinyl]-6-fluoro-1-[2-(S)-fluoro-1-(R)-cyclopropyl]-1,4-dihydro-8-methyl-4-oxoquinoline-3-carboxylic acid (abbreviated as trans) hydrochloride in distilled water for injection was administered intravenously to Slc:ddy five week male mice (five mice per group) and the symptoms are observed.

E. coli, NIHJ = test: Antimicrobial activity (MIC), standard method of the Japan Society of Chemotherapy; type: cell-based
Method: (§1) Examples of the first and second aspects of the present invention are given below by way of illustration and not by way of limitation. In-this regard, the antibacterial and antimicrobial activities of the compounds of interest were measured in accordance with the standard method specified by the Japan Society of Chemotherapy. The results are shown in Tables 1 to 5 as a minimum inhibitory concentration (MIC,μg/ml). Unless otherwise indicated, all percents (%) are by weight.

Pr. mirabilis, IFO-3849 = test: as above; type: cell-based
Method: as §1

Pr. vulgaris, 08601 = test: as above; type: cell-based; details: for MIC: Proteus vulgaris, read-out: minimum inhibitory concentration (MIC)
Method: as §1

Ps. aeruginosa, 32104 = test: as above; type: cell-based; details: for minimum inhibitory concentration (MIC): Ps. aeruginosa
Method: as §1

Ps. aeruginosa, 32121 = test: as above; type: cell-based
Method: as §1

[2] = system: Ps. maltophilia, IID-1275; test: as above; type: cell-based
Method: as §1

S. aureus, 209P = test: as above; type: cell-based
Method: as §1

S. aureus, 870307 = test: as above; type: cell-based
Method: as §1

S. epidermidis, 56500 = test: as above; type: cell-based
Method: as §1

S. flexneli, 2A 5503 = test: as above; type: cell-based; details: for minimum inhibitory concentration (MIC): S. flexneli, 2A 5503
Method: as §1

Ser. marcescens, 10100 = test: as above; type: cell-based
Method: as §1

[3] = system: Str. faecalis, ATCC-19433; test: as above; type: cell-based
Method: as §1

Str. pyogenes, G-36 = test: as above; type: cell-based
Method: as §1

[4] = Staphylococcus aureus, read-out: minimum inhibitory concentration (MIC)
[5] = Staphylococcus epidermidis, S. epidermidis, 56500, read-out: minimum inhibitory concentration (MIC)
[6] = 150 mg/kg, * = test stopped when second mouse died

Cc1c(N2C[C@@H](CO)[C@@H](C3(N)CC3)C2)c(F)c(N)c2c(=O)c(C(=O)O)cn(C3CC3)c12 (relative stereo) [Example 14, 5-Amino-7-[cis-4-(1-aminocyclopropyl)-3-hydroxymethyl-1-pyrrolidinyl]-1-cyclopropyl-6-fluoro-1,4-dihydro-8-methyl-4-oxoquinoline-3-carboxylic acid]
acute toxicity result in words ([1]; 150 mg/kg): same result

Cc1c(N2C[C@@H](F)[C@@H](C3(N)CCC3)C2)c(F)c(N)c2c(=O)c(C(=O)O)cn([C@@H]3C[C@@H]3F)c12 (single isomer, unassigned; isomer b) [Example 13]
minimum inhibitory concentration (MIC) (E. coli, NIHJ): ≤ 0.003 µg/mL
minimum inhibitory concentration (MIC) (Pr. mirabilis, IFO-3849): 0.05 µg/mL (≈ 0.111 µM)
minimum inhibitory concentration (MIC) (Pr. vulgaris, 08601): 0.025 µg/mL (≈ 0.0555 µM)
minimum inhibitory concentration (MIC) (Ps. aeruginosa, 32104): 0.20 µg/mL (≈ 0.444 µM)
minimum inhibitory concentration (MIC) (Ps. aeruginosa, 32121): 0.10 µg/mL (≈ 0.222 µM)
minimum inhibitory concentration (MIC) [2]: 0.20 µg/mL (≈ 0.444 µM)
minimum inhibitory concentration (MIC) (S. aureus, 209P): ≤ 0.003 µg/mL
minimum inhibitory concentration (MIC) (S. aureus, 870307): 0.05 µg/mL (≈ 0.111 µM)
minimum inhibitory concentration (MIC) (S. epidermidis, 56500; S. epidermidis, 56500): 0.006 µg/mL (≈ 0.0133 µM)
minimum inhibitory concentration (MIC) (S. flexneli, 2A 5503): 0.006 µg/mL (≈ 0.0133 µM)
minimum inhibitory concentration (MIC) (Ser. marcescens, 10100): 0.20 µg/mL (≈ 0.444 µM)
minimum inhibitory concentration (MIC) [3]: 0.025 µg/mL (≈ 0.0555 µM)
minimum inhibitory concentration (MIC) (Str. pyogenes, G-36): 0.006 µg/mL (≈ 0.0133 µM)
acute toxicity result in words ([1]; 150 mg/kg): same result

Cc1c(N2C[C@H](C)[C@@H](C3(N)CC3)C2)c(F)c(N)c2c(=O)c(C(=O)O)cn([C@@H]3C[C@@H]3F)c12 [Example 3, 5-Amino-7-[(3R,4R)-3-(1-aminocyclopropyl)-4-methyl-1-pyrrolidinyl]-6-fluoro-1-[(1R,2S)-2-fluorocyclopropyl]-1,4-dihydro-8-methyl-4-oxoquinoline-3-carboxylic acid]
MIC (E. coli, NIHJ; Escherichia coli, read-out: minimum inhibitory concentration (MIC)): ≤ 0.003 µg/mL
MIC (Pr. mirabilis, IFO-3849; Proteus mirabilis, IFO3849, read-out: minimum inhibitory concentration (MIC)): 0.05 µg/mL (≈ 0.116 µM)
MIC (Pr. vulgaris, 08601): 0.025 µg/mL (≈ 0.0578 µM)
MIC (Ps. aeruginosa, 32104; Pseudomonas aeruginosa, 32104, Ps. aeruginosa, read-out: minimum inhibitory concentration (MIC)): 0.2 µg/mL (≈ 0.462 µM)
MIC (Ps. aeruginosa, 32121; Pseudomonas aeruginosa, read-out: minimum inhibitory concentration (MIC)): 0.1 µg/mL (≈ 0.231 µM)
MIC ([2]; Stenotrophomonas maltophilia, IID1275, read-out: minimum inhibitory concentration (MIC)): 0.1 µg/mL (≈ 0.231 µM)
MIC (S. aureus, 209P; [4]): ≤ 0.003 µg/mL
MIC (S. aureus, 870307; [4]): 0.025 µg/mL (≈ 0.0578 µM)
MIC (S. epidermidis, 56500; [5]): ≤ 0.003 µg/mL
MIC (S. flexneli, 2A 5503; read-out: minimum inhibitory concentration (MIC), S. flexneli, 2A 5503): ≤ 0.003 µg/mL
MIC (Ser. marcescens, 10100; Serratia marcescens, read-out: minimum inhibitory concentration (MIC)): 0.1 µg/mL (≈ 0.231 µM)
MIC ([3]; Enterococcus faecalis, ATCC19433, read-out: minimum inhibitory concentration (MIC)): 0.025 µg/mL (≈ 0.0578 µM)
MIC (Str. pyogenes, G-36; Streptococcus pyogenes, G36, read-out: minimum inhibitory concentration (MIC)): ≤ 0.003 µg/mL

Cc1c(N2C[C@H](F)[C@@H](C3(N)CC3)C2)c(F)c(N)c2c(=O)c(C(=O)O)cn([C@@H]3C[C@@H]3F)c12.Cl [Example 5, 5-Amino-7-[4-(R)-(1-aminocyclopropyl)-3-(R)-fluoro-1-pyrrolidinyl]-6-fluoro-1-[2-(S)-fluoro-1-(R)-cyclopropyl]-1,4-dihydro-8-methyl-4-oxoquinoline-3-carboxylic acid hydrochloride]
MIC (S. epidermidis, 56500; [5]): ≤ 0.003 µg/mL
Number of death ([1]; 50 mg/kg): 0/5
Number of death ([1]; 100 mg/kg, * = test stopped when second mouse died): 2/2
Number of death [1, 6]: 2/2

COc1c(N2C[C@@H](F)[C@@H](C3(N)CC3)C2)c(F)cc2c(=O)c(C(=O)O)cn([C@@H]3C[C@@H]3F)c12 [Example 12, 7-[4-(R)-(1-Aminocyclopropyl)-3-(S)-fluoro-1-pyrrolidinyl]-6-fluoro-1-[2-(S)-fluoro-1-(R)-cyclopropyl]-1,4-dihydro-8-methoxy-4-oxoquinoline-3-carboxylic acid]
MIC (Pr. vulgaris, 08601): 0.006 µg/mL (≈ 0.0137 µM)
minimum inhibitory concentration (MIC) (Ps. aeruginosa, 32104; listed as 18): 0.20 µg/mL (≈ 0.457 µM)
minimum inhibitory concentration (MIC) (S. flexneli, 2A 5503): 0.013 µg/mL (≈ 0.0297 µM)
minimum inhibitory concentration (MIC) (S. flexneli, 2A 5503; listed as 18): 0.006 µg/mL (≈ 0.0137 µM)
acute toxicity result in words ([1]; 150 mg/kg): same result

Cc1c(N2C[C@@H](F)[C@@H](C3(N)CC3)C2)c(F)c(N)c2c(=O)c(C(=O)O)cn([C@@H]3C[C@@H]3F)c12.Cl [Example 15, 5-Amino-7-[4-(R)-(1-aminocyclopropyl)-3-(S)-fluoro-1-pyrrolidinyl]-6-fluoro-1-[2-(S)-fluoro-1-(R)-cyclopropyl]-1,4-dihydro-8-methyl-4-oxoquinoline-3-carboxylic acid hydrochloride]
Number of death [1, 6]: 0/5

COc1c(N2C[C@@H](F)[C@@H](C3(N)CC3)C2)c(F)c(N)c2c(=O)c(C(=O)O)cn([C@@H]3C[C@@H]3F)c12 [Example 16, 5-Amino-7-[4-(R)-(1-aminocyclopropyl)-3-(S)-fluoro-1-pyrrolidinyl]-6-fluoro-1-[2-(S)-fluoro-1-(R)-cyclopropyl]-1,4-dihydro-8-methoxy-4-oxoquinoline-3-carboxylic acid]
acute toxicity result in words ([1]; 150 mg/kg): same result

C[C@H]1COc2c(N3C[C@@H](F)[C@@H](C4(N)CC4)C3)c(F)cc3c(=O)c(C(=O)O)cn1c23 [Example 17, 10-[4-(R)-(1-Aminocyclopropyl)-3-(S)-fluoro-1-pyrrolidinyl]-9-fluoro-2,3-dihydro-3-(S)-methyl-7-oxo-7H-pyrido[1,2,3-de][1,4]benzoxazine-6-carboxylic acid]
acute toxicity result in words ([1]; 150 mg/kg): same result

C[C@H]1COc2c(N3C[C@@H](F)[C@@H](C4(N)CC4)C3)c(F)c(N)c3c(=O)c(C(=O)O)cn1c23 [Example 21, 8-Amino-10-[4-(R)-(1-aminocyclopropyl)-3-(S)-fluoro-1-pyrrolidinyl]-9-fluoro-2,3-dihydro-3-(S)-methyl-7-oxo-7H-pyrido[1,2,3-de][1,4]benzoxazine-6-carboxylic acid]
MIC (S. epidermidis, 56500; Staphylococcus epidermidis, 56500, read-out: minimum inhibitory concentration (MIC)): 0.013 µg/mL (≈ 0.0309 µM)
acute toxicity result in words ([1]; 150 mg/kg): same result
